Laboratory results: patent US10335382B2, “Use of hydrogen sulfide synthesis inhibitors for cancer therapy” (THE BOARD OF REGENTS OF THE UNIVERSITY OF TEXAS SYSTEM, priority 2013, dated 2019)
“Also recorded” adds a separate entry of the source.

How the values were obtained:
[1] = system: peritumor microvessel blood flow; assay: Tumor microvascular blood flow (laser Doppler); assay type: in vivo, mice; details: intratumoral injection; AOAA 9 mg/kg, L-cysteine 1 mg/kg
Experimental: FIG. 6. L-Cysteine increases, while AOAA reduces microvessel blood flow in tumor bearing mice. Tumor bearing mice were anesthetized by i.p. injection of ketamine-xylazine and a laser Doppler (PeriFlux system 5000) was placed on top of the tumor for microvessel blood flow measurements. After a stabilization period, L-Cys or AOAA were injected subcutaneously in proximity of the tumor. […] Data represent mean±SEM of n=6 determinations.
Skin microvascular blood flow was measured using a PeriFlux 5000 laser-Doppler flowmeter. Mice bearing PTX were anesthetized by ketamine-xylazine (i.p.). The laser-Doppler probe was placed on top of the tumors and a stable basal signal was recorded. Changes in the subcutaneous microcirculatory perfusion were detected following intratumoral injections of either L-cysteine (1 mg/kg) or AOAA (9 mg/kg).

[2] = system: mitochondria isolated from HCT116 cells; assay: Bioenergetic analysis in isolated mitochondria; assay type: cell-based, human; details: L-cysteine 30 nM; mitochondria from control shNT cells
Experimental: Bioenergetic measurements in mitochondria isolated from shNT and shCBS HCT-116 cells were conducted in the absence or presence of L-cysteine (30 nM) (Módis et al. (2013) FASEB J 27:601-11; Wu et al. (2007) Am J Physiol Cell Physiol. 292:C125-36). Basal respiration (State 2) in the presence of succinate and rotenone was measured, followed by State 3 (phosphorylating respiration), in the presence of ADP. State 4o was determined after the addition of oligomycin, and maximal uncoupler-stimulated respiration (State 3u) was assessed in the presence of FCCP.

HCT116 cells = assay: HCT116 cell migration and invasion (Transwell); assay type: cell-based, human; details: NaHS 30 μM in lower chamber; serum-free media
Experimental: FIG. 3. […] (A, B) The lentiviral shRNA vectors targeting CBS (shCBS) and CSE (shCSE) were transfected into HCT116 cells. A non-targeting sequence was used as control (shNT). […] Following CBS and CSE silencing, cells were seeded at the density of 3000 cells/well in xCELLigence plates and proliferation was monitored for 36 hours. […] The NCM356 cells were infected overnight with a CBS expressing adenovirus (Ad-CBS, 10 multiplicity of infection (MOI)) or its control, a green fluorescent protein (Ad-GFP). The culture media was then replaced and cells were seeded in XCelligence plates at 3000 cells/well. Cell proliferation was then measured real-time over 36 hours. […] (H, I) The effect of AOAA and NaHS was also tested on HCT116 cell migration (H) and invasion (I). Cells were pretreated either with vehicle or AOAA (1 mM) and seeded in serum-free DMEM (0.1% albumin) in the upper chamber of a trans-well insert uncoated (migration assay) or coated with growth factor reduced matrigel (invasion assay). Migration and invasion were stimulated by fibroblast-conditioned media in the lower chamber for 6 and 24 hours, respectively. […] (J) In a co-culture of human endothelial cells (EAhy926) and colon cancer cells (HCT116), HCT 116 cells were seeded in the lower chamber of a trans-well insert and cultured to confluence. Endothelial cells were then seeded into the upper chamber in serum-free DMEM and allowed to migrate for 4 hours at 37° C. […] Western blots are representative of at least three independent experiments; proliferation/migration/invasion assays and H2S measurements represent mean±SEM of n=3 determinations.
(§1) Cellular migration and invasion assays were performed as described (Chao et al. (1996) Cancer Res. 56:4811-19). Briefly, 10^5 cells were suspended in serum-free media containing 0.1% BSA and then added to 6.5 mm Transwell chambers ([…]) uncoated (migration assay) or coated with a thin layer (45 μl) of growth factor reduced matrigel (cell invasion assay). Cells were allowed to migrate toward the bottom chamber containing fibroblast (NIH-3T3 cells) conditioned media at 37° C. for 6 or 24 h for cell migration and invasion, respectively. Migrated and invaded cells were then fixed in Carson's fixative, stained in 0.33% toluidine blue and quantified by visual counting. For the HCT116-EAhy926 co-culture experiment, the cancer cell line was grown to confluence in the bottom wells of the transwell chambers and then endothelial cell migration was assessed (Coletta et al. (2012) Proc Natl Acad Sci USA. 109:9161-66).

HCT116 colon cancer cell = HCT116 colon cancer cell proliferation (xCELLigence); assay type: cell-based, human; details: for inhibition at 300 µM / IC50: Homo sapiens, HCT-116; for IC50: read-out: IC50 (μM), inhibition of HCT116 colon cancer cell proliferation
Experimental: Cellular proliferation assays are conducted in HCT116 CRC cells in vitro, using the Roche XCelligence method. Concentration-response curves with the various AOAA analogs are prepared (concentration range: 1, 3, 10, 100, 300 and 600 μM). AOAA is used as the reference control, which, according to preliminary data, has an IC50 of approximately 300 μM. Control proliferation studies in the non-carcinogenic colonic epithelial cell line NCM356 are used to confirm cancer-cell selectivity. Since the NCM356 cells contain low levels of CBS, based on previous studies it is expect that AOAA (and its prodrugs) will only exert modest antiproliferative effects in these cells. Proliferation-inhibitory effects of the AOAA prodrugs in NCM356 cells indicate CBS-independent pharmacological actions. A collection of human colorectal tumor tissue samples (and surrounding non-cancerous tissue) are used to test the conversion of the AOAA prodrugs to AOAA in a number of cancer samples.
as §1, with “109:9161-66). For assessment of colon cell proliferation, the xCELLigence system (Roche) was used (Szabo and Papapetropoulos (2011) Br J Pharmacol. 164:853-65).” for “109:9161-66).”
For assessment of cell proliferation, the xCELLigence system (Roche) was used. Briefly, HCT116 cells were cultured until approximately 70% confluence. Cells were then detached by Trypsin-EDTA and resuspended in fresh culture media at a concentration of 30,000 cells/ml. 200 μl of cell suspension was added to each well (6,000 cells/well) of a E-plate 96, a specially designed 96-well microtiter plate containing interdigitated microelectrodes to non-invasively monitor the cell proliferation by measuring the relative change in the electrical impedance of the cell monolayer, a unitless parameter named cell index (CI). Cells were then treated with YD02-51 and proliferation was monitored for 48 hours.

HCT116 tumor xenografts = assay: HCT116 tumor xenograft in nude mice; assay type: in vivo, Nu/nu Balb/C female mice; details: 0.1, 0.5 or 1 mg/kg s.c. 6 days/week; harvest Day 28
Experimental: Nu/nu Balb/C female mice (8-10 weeks) were injected subcutaneously in the right and left dorsum (10^6 cells/side with HCT-116 cells). One week later, the mice were randomized and subcutaneous injections of phosphate buffered saline (PBS) or AOAA (9 mg/kg/day) were performed 6 days/week. Tumor diameters were measured transcutaneously using calipers and tumor volumes were calculated using the formula V=(π/6)hd^2. T-test comparisons of the tumor volumes and final weights at harvest were performed. Xenotrials with patient-derived xenografts (PTX) were performed on nu/nu mice implanted subcutaneously with a piece of Passage 2 tumor measuring 2-5 mm^3 each. When a small palpable tumor was evident at 7-10 days, the mice with tumor take were randomized and subjected to subcutaneous injection of vehicle or AOAA (9 mg/kg/day) 6 days/week. Specimens were fixed with 10% formalin and embedded in paraffin. 5 μm sections were stained with hematoxylin and eosin. Each in vivo experiment was repeated at least twice.
Tissue preparation, immunostaining of CD31, and evaluation of microvessel density with the Chakley reticle was performed as described (Chao et al. (1996) Cancer Res. 56:4811-19).
Nu/nu Balb/c female mice (8-10 weeks) were injected subcutaneously in the right and left dorsum (10^6 cells/side with HCT116 cells). One week later, the mice were randomized and subcutaneous injection of phosphate buffered saline (PBS control) or YD2-51 (0.1, 0.5 or 1 mg/kg) was performed 6 days/week. Tumor volumes and final weights at harvest (post-tumor injection Day 28) were performed and tumor weight/animal weight ratios calculated.

In the case of `N[C@@H](CS)C(=O)O` [L-cysteine], the “peritumor / skin microvessel blood flow” value [1] is reported as “increased” and the “OCR in state 3 and state 3u respiration” value [2] is reported as “elevates OCR”.
With `[Na+].[SH-]` [NaHS, sodium hydrogen sulfide] the HCT116 cell invasion (HCT116 cells) was “slightly enhanced” and the HCT116 cell migration (HCT116 cells) was “slightly enhanced”.
`COC(=O)CON` [YD-1-71, aminooxyacetic acid methyl ester] was tested, and the “antiproliferative effect in HCT116 compared with parent AOAA” value (HCT116 colon cancer cell; HCT116) was “markedly enhances the antiproliferative effect; also recorded: substantially lower concentrations”, the inhibition at 300 µM (HCT116 colon cancer cell; HCT116) was 80% and the IC50 (HCT116 colon cancer cell) was 181 µM.
In the case of `NOCC(=O)OCc1ccccc1` [YD-2-22], the inhibition at 300 µM (HCT116 colon cancer cell; HCT116) is reported as 91% and the IC50 (HCT116 colon cancer cell) is reported as 159 µM.
In the case of `CC(C)(C)OC(=O)NOCC(=O)O` [YD-2-23], the inhibition at 300 µM (HCT116 colon cancer cell; HCT116) is reported as 71% and the IC50 (HCT116 colon cancer cell) is reported as 207 µM.
`CCC(CC)OC(=O)CON` [YD-2-51, pentan-3-yl 2-(aminooxy)acetate] was tested, and the “tumor growth in tumor-bearing mice” value (HCT116 tumor xenografts) was “inhibited tumor growth” and the “tumor cell proliferation (cell index)” value (HCT116 colon cancer cell; HCT116, 6,000 cells/well, monitored 48 hours) was “potent, concentration-dependent inhibition”.
